According to patent US12077607B2, “Functional and therapeutic effects of PAR4 cleavage by cathepsin G” (UNIVERSITY OF UTAH RESEARCH FOUNDATION, priority 2021, dated 2024):
Positions count from the first letter of the chain named.

Tests used:
Format in all cases: cell-based
PAR4-R68E = target: T1, PAR4-R68E (Homo sapiens, UniProt Q96RI0, R68E); assay: PAR4 mutant calcium flux assay, HEK293T/17 cells, R68E; conditions: 100 nM vorapaxar
T1 construct: Flag; expressed in transfected cells; host or cells: HEK293T/17 (ATCC CRL-11268)
T1 sequence (Q96RI0 18-385 R68E): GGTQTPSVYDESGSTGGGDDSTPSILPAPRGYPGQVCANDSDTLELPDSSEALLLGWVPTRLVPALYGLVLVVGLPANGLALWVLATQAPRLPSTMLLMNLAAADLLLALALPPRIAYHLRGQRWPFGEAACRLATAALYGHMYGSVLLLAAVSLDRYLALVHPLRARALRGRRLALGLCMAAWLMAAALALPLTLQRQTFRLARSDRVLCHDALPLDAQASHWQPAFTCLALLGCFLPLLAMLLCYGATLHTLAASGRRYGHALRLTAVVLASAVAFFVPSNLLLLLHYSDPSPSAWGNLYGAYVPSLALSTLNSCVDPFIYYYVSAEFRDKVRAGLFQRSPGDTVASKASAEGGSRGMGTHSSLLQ
Procedure: (§1) PAR4 mutant calcium flux assays. Using Quikchange Lightning Site-Directed mutagenesis (Agilent) per manufacturing instructions, pCMV-Flag-PAR4-S66E, pCMV-Flag-PAR4-S67E, and pCMV-Flag-PAR4-R68E were generated from mutation of pCMV-Flag-PAR4 and confirmed by sequencing (University of Utah DNA Sequencing Core). Prior to transfection, HEK293T/17 cells (ATCC CRL-11268) were seeded at 4.5×10^4/mL. The following day, cells were transfected with the plasmid of interest using Lipofectamine 2000 (Invitrogen, Carlsbad, CA, USA). Twenty-four hours after transfection, media was removed and replaced with Optimem w/Glutamax (Gibco, Carlsbad, CA, USA) containing vorapaxar (100 nM) (Cayman Chemical, Ann Arbor, MI, USA) and Fura2-QBT (Molecular Devices). Following incubation for 1 hour at 37° C., plate was placed in the Flexstation 3 (Molecular Devices) where agonists, Tyrode's Buffer, cathepsin G (2.5 μM), or α-thrombin (1.5 U/mL), were injected onto cells and calcium mobilization was monitored and recorded.

PAR4-S67E = target: T2, PAR4-S67E (Homo sapiens, UniProt Q96RI0, S67E); assay: PAR4 mutant calcium flux assay, HEK293T/17 cells, S67E; conditions: 100 nM vorapaxar
T2 construct: Flag; expressed in transfected cells; host or cells: HEK293T/17 (ATCC CRL-11268)
T2 sequence (Q96RI0 18-385 S67E): T1 sequence (Q96RI0 18-385 R68E) with S50E, E51R
Procedure: as §1

rat washed platelets = assay: Platelet aggregation of rat washed platelets; conditions: 1 U/mL human thrombin, 1 μM human CatG or 1 mM RA-11mer
Procedure: Platelet and neutrophil isolation. Platelets and neutrophils were isolated as previously described (Yost et al., J Clin Invest. 2016; 126(10):3783-3798). Platelet isolation from dogs, rats and mice was approved by the IACUC. Platelet activation and aggregation were performed as previously described (Manne et al., Blood. 2020; 136(11): 1317-1329).
Platelet isolation, aggregation, and activation. Human washed platelets were prepared and resuspended in Tyrode's Buffer at 2×10^8/mL as described (Edelstein et al., Nat Med. 2013; 19(12):1609-1616). For human and dog platelet comparisons, platelets were prepared using a modified human platelet protocol with final concentrations of […] (Cayman Chemical, Ann Arbor, MI, USA) used during centrifugation steps. Centrifugations after Tyrode's washes was decreased to 1,250×g as described in Cremer et al., PLOS One. 2019; 14(11): e0224891. Platelet aggregation was measured under stirring conditions at 37° C. using a PAP-8E aggregometer after treatment with the following agonists: arachidonic acid (Bio/Data Corporation, Horsham, PA, USA), cathepsin G, elastase, proteinase 3 (Athens Research Group), α-thrombin (Sigma, St. Louis, MO, USA), PAR-1 peptide (SFLLRN) (GL Biochem, China). P-selectin and PAC-1 were measured as previously described (Yee et al., J Thromb Haemost. 2006; 4(9):2043-2050; Tourdot et al., Arterioscler Thromb Vasc Biol. 2014; 34(12):2644-2650).

## CatG: serine protease cathepsin G released by activated neutrophils
PAR4-R68E; CatG 2.5 μM, P<0.001
  CatG-induced calcium flux, R68E mutant compared with WT: significantly less calcium flux than WT
PAR4-S67E; CatG 2.5 μM, P<0.001
  CatG-induced calcium flux, S67E mutant compared with WT: significantly less calcium flux than WT
Rat washed platelets
  platelet aggregation, species comparison: rats: only induced platelet aggregation in humans and dogs

## thrombin
PAR4-R68E; thrombin 1.5 U/mL
  thrombin-induced calcium flux, R68E mutant compared with WT: None of the PAR4 mutants were significantly different than WT
PAR4-S67E; thrombin 1.5 U/mL
  thrombin-induced calcium flux, S67E mutant compared with WT: None of the PAR4 mutants were significantly different than WT
Rat washed platelets
  platelet aggregation, species comparison: rats: induced platelet aggregation
